# ChEMBL document CHEMBL1139387, “Fragment-based discovery of the pyrazol-4-yl urea (AT9283), a multitargeted kinase inhibitor with potent aurora kinase activity” (J Med Chem, 2009)
# Tests used:
# [1] = target: Aurora kinase B (Homo sapiens, UniProt Q96GD4); experiment: Inhibition of Aurora B
# [2] = target: Cyclin-dependent kinase 1/cyclin B1 (Homo sapiens) (UniProt P06493+P14635); settings: 1000 uM
# [3] = target: Cyclin-dependent kinase 2 (Homo sapiens, UniProt P24941); experiment: Inhibition of CDK2/Cyclin A
# [4] = target: Cyclin-dependent kinase 1/cyclin B1 (Homo sapiens, UniProt P06493); experiment: Inhibition of CDK1/Cyclin B; type: protein-complex assay
# [5] = test system: HCT-116; experiment: Cytotoxicity against human HCT116 cells assessed as distinct polyploidy phenotype after 72 hrs; type: functional
# [6] = in vitro; settings: mouse, plasma
# [7] = target: T1, Aurora kinase A (Homo sapiens, UniProt O14965)
# T1 sequence (O14965 whole entry): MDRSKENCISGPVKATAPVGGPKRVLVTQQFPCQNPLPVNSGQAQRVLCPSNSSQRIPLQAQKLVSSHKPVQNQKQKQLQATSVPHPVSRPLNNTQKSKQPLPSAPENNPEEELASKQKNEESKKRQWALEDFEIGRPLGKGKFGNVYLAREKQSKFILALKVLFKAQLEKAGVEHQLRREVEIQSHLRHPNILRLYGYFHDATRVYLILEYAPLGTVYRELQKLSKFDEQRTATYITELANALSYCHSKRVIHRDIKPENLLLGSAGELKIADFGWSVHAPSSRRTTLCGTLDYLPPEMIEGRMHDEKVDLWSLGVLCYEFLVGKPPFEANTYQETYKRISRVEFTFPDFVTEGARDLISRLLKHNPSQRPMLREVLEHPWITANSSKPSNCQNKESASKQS
# [8] = target: Cytochrome P450 2C9 (Homo sapiens, UniProt P11712); experiment: Inhibition of CYP2C9; type: ADME
# [9] = Half life in human HCT116 cells xenografted BALB/c mouse tumor at 10 mg/kg, iv; type: ADME, organism-based, HCT-116; design: dose 10 mg/kg, route intravenous
# [10] = Oral bioavailability in BALB/c mouse bearing human HCT116 cells at 10 mg/kg; type: ADME, organism-based, HCT-116; settings: in vivo
# [11] = AUC (0 to t) in BALB/c mouse bearing human HCT116 cells at 10 mg/kg, po; type: ADME, organism-based, HCT-116; design: dose 10 mg/kg, route oral; settings: in vivo
# [12] = target: Cytochrome P450 2C19 (Homo sapiens, UniProt P33261); experiment: Inhibition of CYP2C19; type: ADME
# [13] = target: T2, Cytochrome P450 1A2 (Homo sapiens, UniProt P05177); experiment: Inhibition of CYP1A2; type: ADME
# T2 sequence (P05177 whole entry): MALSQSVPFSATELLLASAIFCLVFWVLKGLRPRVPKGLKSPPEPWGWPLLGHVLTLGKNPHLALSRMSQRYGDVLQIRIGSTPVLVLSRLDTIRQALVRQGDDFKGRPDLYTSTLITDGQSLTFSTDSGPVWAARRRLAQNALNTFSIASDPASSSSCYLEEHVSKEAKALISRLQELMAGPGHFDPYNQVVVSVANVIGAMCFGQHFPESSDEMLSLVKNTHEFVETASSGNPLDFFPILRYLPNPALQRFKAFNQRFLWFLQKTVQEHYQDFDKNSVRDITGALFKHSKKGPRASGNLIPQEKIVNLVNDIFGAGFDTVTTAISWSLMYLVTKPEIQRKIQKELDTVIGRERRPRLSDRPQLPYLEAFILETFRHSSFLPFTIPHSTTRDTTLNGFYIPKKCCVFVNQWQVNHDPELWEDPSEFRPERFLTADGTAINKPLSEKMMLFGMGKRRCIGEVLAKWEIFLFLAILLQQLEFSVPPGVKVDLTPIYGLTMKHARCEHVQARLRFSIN
# [14] = AUC (0 to t) in BALB/c mouse bearing human HCT116 cells at 5 mg/kg, iv; type: ADME, organism-based, HCT-116; design: dose 5 mg/kg, route intravenous; settings: in vivo
# [15] = Cmax in BALB/c mouse bearing human HCT116 cells at 10 mg/kg, po; type: ADME, organism-based, HCT-116; design: dose 10 mg/kg, route oral; settings: in vivo
# [16] = Solubility at pH 7.0; type: physicochemical; settings: buffer
# [17] = test system: HCT-116; experiment: Cytotoxicity against human HCT116 cells assessed as number of colonies after 10 to 14 days by colony forming assay; type: functional, cell-based
# [18] = Volume of distribution at steady state in BALB/c mouse bearing human HCT116 cells at 5 mg/kg, iv; type: ADME, organism-based, HCT-116; design: dose 5 mg/kg, route intravenous; settings: in vivo, read-out: Vdss
# [19] = AUC (0 to t) in BALB/c mouse bearing human HCT116 cells at 20 mg/kg, ip; type: ADME, organism-based, HCT-116; design: dose 20 mg/kg, route intraperitoneal; settings: in vivo
# [20] = Lipophilicity, log D at pH 7.4; type: physicochemical; settings: buffer
# [21] = Cmax in BALB/c mouse bearing human HCT116 cells at 20 mg/kg, ip; type: ADME, organism-based, HCT-116; design: dose 20 mg/kg, route intraperitoneal; settings: in vivo
# [22] = Solubility at pH 5.5; type: physicochemical; settings: buffer
# [23] = Bioavailability in BALB/c mouse bearing human HCT116 cells at 20 mg/kg, ip; type: ADME, organism-based, HCT-116; settings: in vivo
# [24] = Half life in BALB/c mouse plasma bearing human HCT116 cells at 5 mg/kg, iv; type: ADME, organism-based, HCT-116; design: dose 5 mg/kg, route intravenous
# [25] = Clearance in BALB/c mouse bearing human HCT116 cells at 5 mg/kg, iv; type: ADME, organism-based, HCT-116; design: dose 5 mg/kg, route intravenous; settings: in vivo, read-out: MLC
# [26] = target: Tyrosine-protein kinase Yes (Homo sapiens, UniProt P07947); experiment: Inhibition of Yes
# [27] = target: Cytochrome P450 2D6 (Homo sapiens, UniProt P10635); experiment: Inhibition of CYP2D6; type: ADME
# [28] = target: Vascular endothelial growth factor receptor 3 (Homo sapiens, UniProt P35916); experiment: Inhibition of VEGFR3
# [29] = target: Glycogen synthase kinase-3 beta (Homo sapiens, UniProt P49841); experiment: Inhibition of GSK3-beta
# [30] = target: T3, Serine/threonine-protein kinase 17A (Homo sapiens, UniProt Q9UEE5); experiment: Inhibition of DRAK1
# T3 sequence (Q9UEE5 whole entry): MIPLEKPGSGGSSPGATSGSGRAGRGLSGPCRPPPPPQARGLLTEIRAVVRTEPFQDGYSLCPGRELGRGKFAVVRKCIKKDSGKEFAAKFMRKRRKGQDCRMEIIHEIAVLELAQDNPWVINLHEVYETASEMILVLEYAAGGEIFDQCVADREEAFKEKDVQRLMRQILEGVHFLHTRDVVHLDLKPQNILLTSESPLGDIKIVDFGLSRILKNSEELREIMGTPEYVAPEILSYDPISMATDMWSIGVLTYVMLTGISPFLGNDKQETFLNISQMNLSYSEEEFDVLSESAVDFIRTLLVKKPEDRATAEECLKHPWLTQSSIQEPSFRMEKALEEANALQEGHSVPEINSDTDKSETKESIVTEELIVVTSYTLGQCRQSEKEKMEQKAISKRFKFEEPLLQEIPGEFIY
# [31] = Cmax in BALB/c mouse bearing human HCT116 cells at 5 mg/kg, iv; type: ADME, organism-based, HCT-116; design: dose 5 mg/kg, route intravenous; settings: in vivo
# [32] = test system: Mus musculus; experiment: Toxicity in BALB/c mouse bearing human HCT116 cells assessed as body weight at 20 mg/kg, ip relative to starting weight; type: organism-based, HCT-116; design: dose 20 mg/kg, route intraperitoneal; settings: in vivo
# [33] = test system: HCT-116; experiment: Antitumor activity against human HCT116 cells xenografted in BALB/c mouse at 20 mg/kg, ip after 16 days relative to control; type: functional; settings: route intraperitoneal
# [34] = test system: HCT-116; experiment: Antitumor activity against human HCT116 cells xenografted in BALB/c mouse at 15 mg/kg, ip after 16 days relative to control; type: functional; settings: route intraperitoneal
# [35] = test system: Mus musculus; experiment: Toxicity in BALB/c mouse bearing human HCT116 cells assessed as body weight at 15 mg/kg, ip relative to starting weight; type: organism-based, HCT-116; design: dose 15 mg/kg, route intraperitoneal; settings: in vivo
# [36] = Plasma concentration in mouse assessed per kg body weight; type: ADME, organism-based
# [37] = Oral bioavailability in mouse; type: ADME, organism-based; settings: in vivo
# Sequence of Aurora kinase B (Q96GD4 whole entry): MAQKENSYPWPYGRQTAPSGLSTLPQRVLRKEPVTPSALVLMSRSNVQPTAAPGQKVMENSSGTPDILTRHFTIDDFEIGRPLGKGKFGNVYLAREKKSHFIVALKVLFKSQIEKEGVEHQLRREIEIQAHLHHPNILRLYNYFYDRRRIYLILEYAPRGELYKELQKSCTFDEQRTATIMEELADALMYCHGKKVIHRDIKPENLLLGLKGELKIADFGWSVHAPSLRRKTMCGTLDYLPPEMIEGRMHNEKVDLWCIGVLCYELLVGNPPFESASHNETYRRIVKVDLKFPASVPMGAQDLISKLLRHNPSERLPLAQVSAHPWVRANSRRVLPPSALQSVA
# Sequence of Cyclin-dependent kinase 1/cyclin B1 (P06493 whole entry): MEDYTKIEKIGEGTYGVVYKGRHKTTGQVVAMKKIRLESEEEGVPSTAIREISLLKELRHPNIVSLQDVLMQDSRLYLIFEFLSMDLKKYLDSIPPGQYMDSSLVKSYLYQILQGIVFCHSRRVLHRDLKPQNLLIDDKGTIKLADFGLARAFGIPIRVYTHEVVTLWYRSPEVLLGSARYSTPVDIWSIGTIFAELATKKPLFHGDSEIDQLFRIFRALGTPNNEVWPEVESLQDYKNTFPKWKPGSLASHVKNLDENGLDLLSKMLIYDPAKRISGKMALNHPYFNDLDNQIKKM
# Sequence of Cyclin-dependent kinase 1/cyclin B1 (P14635 whole entry, further chain): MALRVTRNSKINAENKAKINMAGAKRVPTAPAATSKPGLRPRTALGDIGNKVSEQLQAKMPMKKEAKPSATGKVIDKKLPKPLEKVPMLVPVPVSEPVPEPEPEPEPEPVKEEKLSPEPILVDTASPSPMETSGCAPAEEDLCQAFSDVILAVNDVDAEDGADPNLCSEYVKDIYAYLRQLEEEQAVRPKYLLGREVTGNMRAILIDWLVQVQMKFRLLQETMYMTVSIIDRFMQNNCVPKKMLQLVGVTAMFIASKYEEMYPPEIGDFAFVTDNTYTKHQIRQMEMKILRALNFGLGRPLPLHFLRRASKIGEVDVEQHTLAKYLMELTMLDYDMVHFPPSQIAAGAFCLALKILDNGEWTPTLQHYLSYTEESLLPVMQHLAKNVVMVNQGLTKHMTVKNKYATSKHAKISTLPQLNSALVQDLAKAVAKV
# Sequence of Cytochrome P450 2C9 (P11712 whole entry): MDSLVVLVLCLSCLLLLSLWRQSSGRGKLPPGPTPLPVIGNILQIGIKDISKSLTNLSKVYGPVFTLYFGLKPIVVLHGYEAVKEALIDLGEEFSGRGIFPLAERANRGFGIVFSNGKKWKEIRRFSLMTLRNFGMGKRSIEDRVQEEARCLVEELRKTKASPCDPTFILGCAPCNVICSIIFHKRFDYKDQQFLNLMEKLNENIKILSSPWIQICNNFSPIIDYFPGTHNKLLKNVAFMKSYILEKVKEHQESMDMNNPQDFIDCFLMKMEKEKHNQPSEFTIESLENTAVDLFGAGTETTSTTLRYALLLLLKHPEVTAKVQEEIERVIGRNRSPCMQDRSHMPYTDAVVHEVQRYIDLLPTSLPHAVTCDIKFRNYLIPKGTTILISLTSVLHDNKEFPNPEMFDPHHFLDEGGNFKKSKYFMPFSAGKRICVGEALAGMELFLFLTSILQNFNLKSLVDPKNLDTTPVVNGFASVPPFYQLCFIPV
# Sequence of Cytochrome P450 2D6 (P10635 whole entry): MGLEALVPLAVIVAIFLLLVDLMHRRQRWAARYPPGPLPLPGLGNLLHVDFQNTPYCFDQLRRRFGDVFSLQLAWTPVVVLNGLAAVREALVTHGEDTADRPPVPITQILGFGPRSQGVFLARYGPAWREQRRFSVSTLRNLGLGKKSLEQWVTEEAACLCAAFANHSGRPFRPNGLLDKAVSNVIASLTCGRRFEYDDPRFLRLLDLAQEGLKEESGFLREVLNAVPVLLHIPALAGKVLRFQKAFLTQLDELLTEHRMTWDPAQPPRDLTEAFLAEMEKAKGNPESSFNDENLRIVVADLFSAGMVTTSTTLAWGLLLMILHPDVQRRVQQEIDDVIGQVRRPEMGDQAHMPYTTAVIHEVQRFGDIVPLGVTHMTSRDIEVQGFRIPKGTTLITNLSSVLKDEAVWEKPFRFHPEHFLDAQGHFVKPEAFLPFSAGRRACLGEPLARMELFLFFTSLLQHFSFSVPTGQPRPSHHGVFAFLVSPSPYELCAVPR
# Sequence of Cytochrome P450 2C19 (P33261 whole entry): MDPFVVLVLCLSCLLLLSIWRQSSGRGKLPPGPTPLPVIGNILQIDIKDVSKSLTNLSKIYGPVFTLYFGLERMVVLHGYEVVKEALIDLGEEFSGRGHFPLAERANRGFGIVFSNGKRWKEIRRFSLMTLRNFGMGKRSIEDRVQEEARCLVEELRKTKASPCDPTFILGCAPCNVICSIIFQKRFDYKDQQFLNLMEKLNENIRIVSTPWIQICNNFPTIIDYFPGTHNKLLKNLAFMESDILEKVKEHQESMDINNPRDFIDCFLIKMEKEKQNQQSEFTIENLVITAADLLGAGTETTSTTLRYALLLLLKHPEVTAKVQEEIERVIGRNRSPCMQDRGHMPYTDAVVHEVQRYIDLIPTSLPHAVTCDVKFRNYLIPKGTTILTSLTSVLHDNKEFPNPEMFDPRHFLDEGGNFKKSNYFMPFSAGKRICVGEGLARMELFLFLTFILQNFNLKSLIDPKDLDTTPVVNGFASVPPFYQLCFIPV
# Sequence of Tyrosine-protein kinase Yes (P07947 whole entry): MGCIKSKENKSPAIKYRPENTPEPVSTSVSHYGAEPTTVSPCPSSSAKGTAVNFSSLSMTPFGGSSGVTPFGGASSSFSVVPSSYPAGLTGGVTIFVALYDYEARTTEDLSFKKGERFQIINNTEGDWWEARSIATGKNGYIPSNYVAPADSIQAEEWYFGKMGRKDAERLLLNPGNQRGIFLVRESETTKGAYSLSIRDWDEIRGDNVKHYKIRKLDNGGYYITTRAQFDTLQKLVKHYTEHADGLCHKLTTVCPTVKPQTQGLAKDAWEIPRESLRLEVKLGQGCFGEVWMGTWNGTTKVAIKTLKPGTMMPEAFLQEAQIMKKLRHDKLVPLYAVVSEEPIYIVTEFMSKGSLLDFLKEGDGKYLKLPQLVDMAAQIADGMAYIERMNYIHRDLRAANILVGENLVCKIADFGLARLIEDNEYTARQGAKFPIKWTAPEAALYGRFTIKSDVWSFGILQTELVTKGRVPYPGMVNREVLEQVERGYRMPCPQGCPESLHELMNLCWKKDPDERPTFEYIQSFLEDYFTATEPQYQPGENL
# Sequence of Glycogen synthase kinase-3 beta (P49841 whole entry): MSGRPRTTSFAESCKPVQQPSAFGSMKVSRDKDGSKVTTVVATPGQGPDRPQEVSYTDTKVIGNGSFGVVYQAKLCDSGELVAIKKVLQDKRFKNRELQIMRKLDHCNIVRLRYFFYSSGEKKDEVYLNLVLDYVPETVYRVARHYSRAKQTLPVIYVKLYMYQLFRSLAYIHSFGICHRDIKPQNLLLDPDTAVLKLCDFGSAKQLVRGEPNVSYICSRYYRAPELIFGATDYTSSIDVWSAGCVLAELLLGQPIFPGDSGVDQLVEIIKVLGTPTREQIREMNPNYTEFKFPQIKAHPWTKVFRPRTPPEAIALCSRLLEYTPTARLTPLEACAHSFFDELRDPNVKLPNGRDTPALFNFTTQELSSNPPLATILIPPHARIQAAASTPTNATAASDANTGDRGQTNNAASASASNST
# Sequence of Cyclin-dependent kinase 1/cyclin B1 (Homo sapiens) (P06493 whole entry, looked up): as the sequence (P06493 whole entry) above
# Sequence of Cyclin-dependent kinase 1/cyclin B1 (Homo sapiens) (P14635 whole entry, looked up): as the sequence (P14635 whole entry, further chain) above
smiles,measurement,setting,value
c1ccc2[nH]c(-c3cc[nH]n3)nc2c1,IC50,[1],6500 nM
same,inhibition,[2],49%
same,IC50,[3],28000 nM
O=C(Nc1c[nH]nc1-c1nc2ccccc2[nH]1)c1ccccc1,IC50,[1],180 nM
same,IC50,[4],230 nM
same,Activity,[5],3 µM
O=C(Nc1ccccc1)Nc1c[nH]nc1-c1nc2cc(CN3CCOCC3)ccc2[nH]1,IC50,[1],54 nM
same,IC50,[4],5500 nM
same,fraction unbound,[6],0.047
same,IC50,[3],1800 nM
same,Activity,[5],0.3 µM
O=C(Nc1cccnc1)Nc1c[nH]nc1-c1nc2cc(CN3CCOCC3)ccc2[nH]1,IC50,[1],24 nM
same,IC50,[7],13 nM
same,IC50,[4],290 nM
same,IC50,[3],160 nM
same,Activity,[5],1 µM
O=C(Nc1c[nH]nc1-c1nc2ccc(CN3CCOCC3)cc2[nH]1)NC1CC1 [AT-9283],IC50,[8],> 10000 nM
same,half-life,[9],2.5 h
same,bioavailability,[10],24%
same,AUC(0-t),[11],0.91 µM·h
same,IC50,[12],> 10000 nM
same,IC50,[13],> 10000 nM
same,AUC(0-t),[14],1.9 µM·h
same,Cmax,[15],0.45 µM
same,solubility,[16],2000 µg/mL
same,IC50,[17],12 nM
same,Vd,[18],3.9 L/kg
same,AUC(0-t),[19],7.7 µM·h
same,logD,[20],2.1
same,Cmax,[21],8.4 µM
same,solubility,[22],13000 µg/mL
same,bioavailability,[23],100%
same,half-life,[24],0.5 h
same,clearance,[25],114 mL/min/kg
same,IC50,[26],1 nM
same,IC50,[27],> 10000 nM
same,IC50,[28],1 nM
same,IC50,[29],1 nM
same,IC50,[30],10 nM
same,Cmax,[31],4.9 µM
O=C(Nc1c[nH]nc1-c1nc2cc(CN3CCOCC3)ccc2[nH]1)NC1CCCCC1,IC50,[1],5.2 nM
same,IC50,[7],5.7 nM
same,IC50,[4],2900 nM
same,IC50,[3],1200 nM
same,Activity,[5],0.1 µM
O=C(Nc1c[nH]nc1-c1nc2cc(CN3CCOCC3)ccc2[nH]1)Nc1c(F)cccc1F,IC50,[1],2.6 nM
same,IC50,[17],17 nM
same,IC50,[7],1.5 nM
same,logD,[20],3.1
same,IC50,[4],290 nM
same,fraction unbound,[6],0.169
same,IC50,[3],160 nM
same,Activity,[5],0.03 µM
Cl.O=C(Nc1c[nH]nc1-c1nc2cc(CN3CCOCC3)ccc2[nH]1)NC1CC1,Activity,[32],Non-toxic
same,T/C,[33],24%
same,T/C,[34],33%
same,Activity,[35],Non-toxic
O=C(Nc1c[nH]nc1-c1nc2cc(CN3CCOCC3)ccc2[nH]1)c1ccccc1,IC50,[1],15 nM
same,IC50,[7],3.5 nM
same,IC50,[4],340 nM
same,IC50,[3],140 nM
same,Activity,[5],0.1 µM
O=C(Nc1ccccc1F)Nc1c[nH]nc1-c1nc2cc(CN3CCOCC3)ccc2[nH]1,IC50,[1],10 nM
same,IC50,[7],2.8 nM
same,IC50,[4],1100 nM
same,IC50,[3],230 nM
same,Activity,[5],0.1 µM
O=C(Nc1c[nH]nc1-c1nc2ccc(CN3CCOCC3)cc2[nH]1)c1ccc(F)cc1,IC50,[1],75 nM
same,clearance,[36],43 mL/min/kg
same,IC50,[4],1500 nM
same,fraction unbound,[6],0.005
same,IC50,[3],530 nM
same,Activity,[5],0.3 µM
same,bioavailability,[37],26%
Cc1cc(Nc2cc(N3CCN(C)CC3)nc(Sc3ccc(NC(=O)C4CC4)cc3)n2)n[nH]1 [TOZASERTIB],IC50,[17],24 nM
same,Activity,[5],0.03 µM
CC(=O)Nc1c[nH]nc1-c1nc2ccccc2[nH]1,IC50,[1],510 nM
same,IC50,[7],70 nM
same,IC50,[4],3200 nM
same,IC50,[3],990 nM
O=C(Nc1c[nH]nc1-c1nc2cc(CN3CCOCC3)ccc2[nH]1)NC1CCOCC1,IC50,[1],10 nM
same,IC50,[7],26 nM
same,IC50,[4],17000 nM
same,Activity,[5],1 µM
